Some results are limits rather than exact numbers.

The first assay addresses T1, recombinant human Syk (GST-hSyk fusion protein) (Homo sapiens, UniProt P43405).
T1 construct: purchased Carna Biosciences 08-176
Briefly: Homogeneous Time-Resolved Fluorescence (HTRF) assay for the recombinant human Syk enzyme. It counts as biochemical. The conditions noted are these: 10-dose titration, 25 μM ATP; read-out: rhSYK IC50. The method, then:
Syk inhibition may be determined using the following assay protocol:
Homogeneous Time-Resolved Fluorescence (HTRF) Assay for the Recombinant Human Syk Enzyme:
A recombinant GST-hSyk fusion protein was used to measure potency of compounds to inhibit human Syk activity. The recombinant human GST-Syk (Carna Biosciences #08-176) (5 pM final concentration) was incubated with various concentrations of the inhibitor diluted in DMSO (0.1% final concentration) for 10 minutes at room temperature in 15 mM Tris-HCl (pH 7.5), 0.01% tween 20, 2 mM DTT in 384 well plate format. To initiate the reaction the biotinylated substrate peptide (250 nM final concentration) that contains the phosphorylation site for Syk was added with magnesium (5 mM final concentration) and ATP (25 μM final concentration). Final volume of the reaction was 10 μL. Phosphorylation of the peptide was allowed to proceed for 45 minutes at room temperature. To quench the reaction and detect the phosphorylated product, 2 nM of a Europium-anti-phosphotyrosine antibody (Perkin Elmer #AD0161) and 70 nM SA-APC (Perkin-Elmer #CR130-100) were added together in 15 mM Tris pH 7.5, 40 mM EDTA, 0.01% tween 20. Final volume of the quenching solution was 10 μL. The resulting HTRF signal was measured after 30 minutes on an EnVision (Perkin-Elmer) reader using a time-resolved fluorescence protocol. IC50 was determined following 10-dose titration (10 μM to 0.508 nM) and four parameter logistic curve fitting using the Merck Assay Data Analyzer. The rhSyk activity (IC50) is expressed as +++(100 nM or less), ++(between 100 and 1000 nM), +(between 1 and 10 μM).
(In general: Time-resolved FRET reads energy transfer from a long-lived donor to a nearby acceptor.)
Take `Cc1cc(Nc2nccc(C(F)F)n2)cc(-c2cnn(CC(C)(O)C(F)(F)F)c2)c1` (single isomer, unassigned) [Example 24.1, (S or R)-3-(4-(3-((4-(difluoromethyl)pyrimidin-2-yl)amino)-5-methylphenyl)-1H-pyrazol-1-yl)-1,1,1-trifluoro-2-methylpropan-2-ol]: the IC50 was 2.6 nM.

Take `Cc1cc(Nc2nccc(C(F)F)n2)cc(-c2cnn(CC(C)(O)C(F)(F)F)c2)c1` (single isomer, unassigned) [Example 24.2, (S or R)-3-(4-(3-((4-(difluoromethyl)pyrimidin-2-yl)amino)-5-methylphenyl)-1H-pyrazol-1-yl)-1,1,1-trifluoro-2-methylpropan-2-ol]: the IC50 turned out to be 6.2 nM.

Regarding `Cc1cc(Nc2nccc(C(F)F)n2)cc(-c2cnn(CC(O)(CO)C(F)(F)F)c2)c1` (single isomer, unassigned) [Example 25.1, 2-((4-(3-((4-(Difluoromethyl)pyrimidin-2-yl)amino)-5-methylphenyl)-1H-pyrazol-1-yl)methyl)-3,3,3-trifluoropropane-1,2-diol], the IC50 is 3.2 nM.

Still in this assay, the particulars now being: IC50 class; 10-dose titration, 25 μM ATP; read-out: rhSYK Activity.
Take `Cc1cc(Nc2nccc(C(F)(F)F)n2)cc(-c2cnn(CC3OC(=O)NC3C(C)C)c2)c1` (single isomer, unassigned) [Example 23.5, 4-(1-methylethyl)-5-{[4-(3-methyl-5-{[4-(trifluoromethyl)pyrimidin-2-yl]amino}phenyl)-1H-pyrazol-1-yl]methyl}-1,3-oxazolidin-2-one]: the IC50 is no more than 100 nM.

Regarding `Cc1cc(Nc2nccc(C(F)(F)F)n2)cc(-c2cnn(CC3OC(=O)NC3C(C)C)c2)c1` (single isomer, unassigned) [Example 23.6, 4-(1-methylethyl)-5-{[4-(3-methyl-5-{[4-(trifluoromethyl)pyrimidin-2-yl]amino}phenyl)-1H-pyrazol-1-yl]methyl}-1,3-oxazolidin-2-one], the IC50 is no more than 100 nM.

Consider `Cc1cc(Nc2nccc(C)n2)cc(-c2cnn(CC3OC(=O)NC3C)c2)c1` (single isomer, unassigned) [Example 23.7, 4-methyl-5-[(4-{3-methyl-5-[(4-methylpyrimidin-2-yl)amino]phenyl}-1H-pyrazol-1-yl)methyl]-1,3-oxazolidin-2-one], for which the IC50 is no more than 100 nM.

With `Cc1cc(Nc2nccc(C)n2)cc(-c2cnn(CC3OC(=O)NC3C)c2)c1` (single isomer, unassigned) [Example 23.8, 4-methyl-5-[(4-{3-methyl-5-[(4-methylpyrimidin-2-yl)amino]phenyl}-1H-pyrazol-1-yl)methyl]-1,3-oxazolidin-2-one], the IC50 was no more than 100 nM.

For `Cc1cc(Nc2nccc(C(F)F)n2)cc(-c2cnn(CC3OC(=O)NC3C)c2)c1` (single isomer, unassigned) [Example 23.9, 5-{[4-(3-{[4-(difluoromethyl)pyrimidin-2-yl]amino}-5-methylphenyl)-1H-pyrazol-1-yl]methyl}-4-methyl-1,3-oxazolidin-2-one], the IC50 is no more than 100 nM.

Regarding `Cc1cc(Nc2nccc(C(F)F)n2)cc(-c2cnn(CC3OC(=O)NC3C)c2)c1` (single isomer, unassigned) [Example 23.10, 5-{[4-(3-{[4-(difluoromethyl)pyrimidin-2-yl]amino}-5-methylphenyl)-1H-pyrazol-1-yl]methyl}-4-methyl-1,3-oxazolidin-2-one], the IC50 was no more than 100 nM.

On to `Cc1cc(Nc2nccc(C(C)(F)F)n2)cc(-c2cnn(CC3OC(=O)NC3C)c2)c1` (single isomer, unassigned) [Example 23.12, 5-{[4-(3-{[4-(1,1-difluoroethyl)pyrimidin-2-yl]amino}-5-methylphenyl)-1H-pyrazol-1-yl]methyl}-4-methyl-1,3-oxazolidin-2-one], for which the IC50 is no more than 100 nM.

For the compound `Cc1cc(Nc2nccc(C(F)F)n2)cc(-c2cnn(CC3OC(=O)NC3C)c2)c1` (single isomer, unassigned) [Example 23.13, 5-{[4-(3-{[4-(difluoromethyl)pyrimidin-2-yl]amino}-5-methylphenyl)-1H-pyrazol-1-yl]methyl}-4-methyl-1,3-oxazolidin-2-one], the IC50 is no more than 100 nM.

Turning to `Cc1cc(Nc2nccc(C(F)F)n2)cc(-c2cnn(CC3OC(=O)NC3C)c2)c1` (single isomer, unassigned) [Example 23.14, 5-{[4-(3-{[4-(difluoromethyl)pyrimidin-2-yl]amino}-5-methylphenyl)-1H-pyrazol-1-yl]methyl}-4-methyl-1,3-oxazolidin-2-one], the IC50 is no more than 100 nM.

As for `Cc1cc(Nc2nccc(C)n2)cc(-c2cnn(CC3OC(=O)NC3C(C)C)c2)c1` (single isomer, unassigned) [Example 23.15, 4-(1-methylethyl)-5-[(4-{3-methyl-5-[(4-methylpyrimidin-2-yl)amino]phenyl}-1H-pyrazol-1-yl)methyl]-1,3-oxazolidin-2-one], the IC50 is no more than 100 nM.

Consider `Cc1cc(Nc2nccc(C)n2)cc(-c2cnn(CC3OC(=O)NC3C(C)C)c2)c1` (single isomer, unassigned) [Example 23.16, 4-(1-methylethyl)-5-[(4-{3-methyl-5-[(4-methylpyrimidin-2-yl)amino]phenyl}-1H-pyrazol-1-yl)methyl]-1,3-oxazolidin-2-one], for which the IC50 is no more than 100 nM.

For the compound `Cc1cc(Nc2nccc(C(F)F)n2)cc(-c2cnn(CC3OC(=O)NC3C3CC3)c2)c1` (single isomer, unassigned) [Example 23.18, 4-cyclopropyl-5-{[4-(3-{[4-(difluoromethyl)pyrimidin-2-yl]amino}-5-methylphenyl)-1H-pyrazol-1-yl]methyl}-1,3-oxazolidin-2-one], the IC50 was no more than 100 nM.

As for `Cc1cc(Nc2nccc(C(F)F)n2)cc(-c2cnn(CC3OC(=O)NC3C3CC3)c2)c1` (single isomer, unassigned) [Example 23.19, 4-cyclopropyl-5-{[4-(3-{[4-(difluoromethyl)pyrimidin-2-yl]amino}-5-methylphenyl)-1H-pyrazol-1-yl]methyl}-1,3-oxazolidin-2-one], the IC50 was no more than 100 nM.

Regarding `Cc1cc(Nc2ncc(F)c(C(F)F)n2)cc(-c2cnn(CC3OC(=O)NC3C)c2)c1` (single isomer, unassigned) [Example 23.20, 5-{[4-(3-{[4-(difluoromethyl)-5-fluoropyrimidin-2-yl]amino}-5-methylphenyl)-1H-pyrazol-1-yl]methyl}-4-methyl-1,3-oxazolidin-2-one], the IC50 is no more than 100 nM.

With `Cc1cc(Nc2ncc(F)c(C(F)F)n2)cc(-c2cnn(CC3OC(=O)NC3C)c2)c1` (single isomer, unassigned) [Example 23.21, 5-{[4-(3-{[4-(difluoromethyl)-5-fluoropyrimidin-2-yl]amino}-5-methylphenyl)-1H-pyrazol-1-yl]methyl}-4-methyl-1,3-oxazolidin-2-one], the IC50 was no more than 100 nM.

With `Cc1cc(Nc2nccc(C(F)F)n2)cc(-c2cnn(CC(C)(O)C(F)(F)F)c2)c1` (single isomer, unassigned) [Example 24.1, (S or R)-3-(4-(3-((4-(difluoromethyl)pyrimidin-2-yl)amino)-5-methylphenyl)-1H-pyrazol-1-yl)-1,1,1-trifluoro-2-methylpropan-2-ol], the IC50 is no more than 100 nM.

Consider `Cc1cc(Nc2nccc(C(F)F)n2)cc(-c2cnn(CC(C)(O)C(F)(F)F)c2)c1` (single isomer, unassigned) [Example 24.2, (S or R)-3-(4-(3-((4-(difluoromethyl)pyrimidin-2-yl)amino)-5-methylphenyl)-1H-pyrazol-1-yl)-1,1,1-trifluoro-2-methylpropan-2-ol], for which the IC50 is no more than 100 nM.

On to `Cc1cc(Nc2nccc(C(F)F)n2)cc(-c2cnn(CC(O)(CO)C(F)(F)F)c2)c1` (single isomer, unassigned) [Example 25.1, 2-((4-(3-((4-(Difluoromethyl)pyrimidin-2-yl)amino)-5-methylphenyl)-1H-pyrazol-1-yl)methyl)-3,3,3-trifluoropropane-1,2-diol], for which the IC50 is no more than 100 nM.

In the case of `Cc1cc(Nc2nccc(C)n2)cc(-c2cnn(CC(C)(O)CO)c2)c1` (single isomer, unassigned) [Example 25.2, 2-methyl-3-(4-{3-methyl-5-[(4-methylpyrimidin-2-yl)amino]phenyl}-1H-pyrazol-1-yl)propane-1,2-diol], the IC50 is no more than 100 nM.

In the case of `Cc1cc(Nc2nccc(C(F)F)n2)cc(-c2cnn(CC(C)(O)CO)c2)c1` (single isomer, unassigned) [Example 25.3, 3-[4-(3-{[4-(difluoromethyl)pyrimidin-2-yl]amino}-5-methylphenyl)-1H-pyrazol-1-yl]-2-methylpropane-1,2-diol], the IC50 is no more than 100 nM.

Turning to `Cc1cc(Nc2nccc(C)n2)cc(-c2cnn(CC(C)(O)CO)c2)c1` (single isomer, unassigned) [Example 25.4, 2-methyl-3-(4-{3-methyl-5-[(4-methylpyrimidin-2-yl)amino]phenyl}-1H-pyrazol-1-yl)propane-1,2-diol], the IC50 is no more than 100 nM.

`Cc1cc(Nc2nccc(C(F)F)n2)cc(-c2cnn(CC(C)(O)CO)c2)c1` (single isomer, unassigned) [Example 25.5, 3-[4-(3-{[4-(difluoromethyl)pyrimidin-2-yl]amino}-5-methylphenyl)-1H-pyrazol-1-yl]-2-methylpropane-1,2-diol]: the IC50 is no more than 100 nM.

As for `Cc1cc(Nc2nccc([C@@H](C)F)n2)cc(-c2cnn(CC(C)(O)CO)c2)c1` (single isomer, unassigned) [Example 25.6], the IC50 is no more than 100 nM.

With `Cc1cc(Nc2nccc([C@H](C)F)n2)cc(-c2cnn(CC(C)(O)CO)c2)c1` (single isomer, unassigned) [Example 25.7], the IC50 is no more than 100 nM.

Regarding `Cc1cc(Nc2nccc([C@@H](C)F)n2)cc(-c2cnn(CC(C)(O)CO)c2)c1` (single isomer, unassigned) [Example 25.8], the IC50 is no more than 100 nM.

`Cc1cc(Nc2ncc(F)c(C(F)F)n2)cc(-c2cnn(CC(C)(O)CO)c2)c1` (single isomer, unassigned) [Example 25.9, 3-[4-(3-{[4-(difluoromethyl)-5-fluoropyrimidin-2-yl]amino}-5-methylphenyl)-1H-pyrazol-1-yl]-2-methylpropane-1,2-diol]: the IC50 is no more than 100 nM.

(Values after patent US9242984B2, “Pyrazolyl derivatives as Syk inhibitors” (Merck Sharp & Dohme Corp., priority 2012, dated 2016).)
